Columns and labels:
[1] = test system: giant foxtail; assay: Test A preemergence; type: in vivo, Setaria faberii; details: Setaria faberi, pre-emergence, 240 h
In short: (§1)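 Compounds in non-phytotoxic solvent with surfactant applied as soil spray preemergence, or postemergence to plants 2-10 cm at one- to two-leaf stage, in loam/sand. After approximately 10 days in greenhouse, injury rated visually versus untreated controls, 0 (no effect) to 100 (complete control).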

[2] = test system: pigweed; assay: Test A preemergence; type: in vivo, Amaranthus retroflexus; details: Amaranthus retroflexus, pre-emergence
In short: as §1

[3] = test system: velvetleaf; assay: Test A postemergence; type: in vivo, Abutilon theophrasti; details: Abutilon theophrasti, post-emergence, 240 h
In short: as §1

[4] = test system: rice; assay: Test B flooded paddy test; type: in vivo, Oryza sativa; details: Oryza sativa; Flood, 250 g ai/ha; 0 to 100 scale where 0 is no effect and 100 is complete control; read-out: Plant response rating, Rice
In short: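 Evaluation is visual, against untreated controls, 13 to 15 days after treatment. Before treatment, plants reached the 2-leaf stage; pots were then flooded 3 cm deep, compound was added to the water, and that level was maintained. Ratings run 0 to 100, with 100 meaning complete control.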

[5] = test system: giant foxtail; assay: Test C preemergence; type: in vivo, Setaria faberii; details: Setaria faberi, pre-emergence
In short: (§2)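 Plants were kept under greenhouse conditions for 13–15 days following spray. Pre-emergent application went to soil (loam–sand), post-emergent to foliage at 1–4 leaves. Evaluation: visual, percent control against untreated checks.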

[6] = test system: yellow nutsedge; assay: Test C preemergence; type: in vivo, Cyperus esculentus; details: Cyperus, pre-emergence
In short: as §2

[7] = test system: pigweed; assay: Test C preemergence; type: in vivo, Amaranthus retroflexus; details: Amaranthus retroflexus, pre-emergence
In short: as §2

[8] = test system: barnyardgrass; assay: Test C preemergence; type: in vivo, Echinochloa crus-galli; details: Echinochloa crus-galli, pre-emergence
In short: as §2

[9] = test system: Italian ryegrass; assay: Test C postemergence; type: in vivo, Lolium multiflorum; details: Lolium multiflorum, post-emergence
In short: as §2

[10] = test system: wheat, winter; assay: Test C postemergence; type: in vivo, Triticum aestivum; details: Triticum aestivum, post-emergence
In short: as §2

[11] = test system: galium; assay: Test C postemergence; type: in vivo, Galium aparine; details: Galium, post-emergence
In short: as §2

[12] = test system: corn; assay: Test C postemergence; type: in vivo, Zea mays; details: Zea mays, post-emergence
In short: as §2

[13] = test system: yellow nutsedge; assay: Test C postemergence; type: in vivo, Cyperus esculentus; details: Cyperus, post-emergence
In short: as §2

[14] = test system: barnyardgrass; assay: Test C postemergence; type: in vivo, Echinochloa crus-galli; details: Echinochloa crus-galli, post-emergence
In short: as §2

[15] = test system: kochia; assay: Test C postemergence; type: in vivo, Kochia scoparia; details: Bassia scoparia, post-emergence
In short: as §2

Question: Which results are given for `N#Cc1cccc(Oc2ncc(Cl)cn2)c1-n1cc(C(F)(F)F)cn1` [Compound 58, 3-[(5-chloro-2-pyrimidinyl)oxy]-2-[4-(trifluoromethyl)-1H-pyrazol-1-yl]benzonitrile]?
Answer: pest or weed control at 125 g/ha ([1]; 125 g ai/ha, 0 to 100 scale where 0 is no effect and 100 is complete control, read-out: Plant response rating, Foxtail, Giant): 100%; pest or weed control at 500 g/ha ([1]; 500 g ai/ha, 0 to 100 scale, 0 no effect, 100 complete control, approx. 10 days, read-out: Foxtail, Giant plant response rating): 100%; pest or weed control at 125 g/ha ([2]; 125 g ai/ha, 0 to 100 scale where 0 is no effect and 100 is complete control, read-out: Plant response rating, Pigweed): 100%; pest or weed control at 500 g/ha ([2]; 240 h, 500 g ai/ha, 0 to 100 scale, 0 no effect, 100 complete control, approx. 10 days, read-out: Pigweed plant response rating): 100%; pest or weed control at 125 g/ha ([3]; 125 g ai/ha, 0 to 100 scale where 0 is no effect and 100 is complete control, read-out: Plant response rating, Velvetleaf): 100%; pest or weed control at 500 g/ha ([3]; 500 g ai/ha, 0 to 100 scale, 0 no effect, 100 complete control, read-out: Plant response rating Velvetleaf): 100%; plant injury at 250 g/ha [4]: 50%; pest or weed control at 62 g/ha ([5]; 62 g ai/ha, preemergence, scale 0 (no effect) to 100 (complete control), read-out: Foxtail, Giant plant response rating): 100%; pest or weed control at 125 g/ha ([5]; 125 g ai/ha, preemergence, scale 0 (no effect) to 100 (complete control), read-out: Foxtail, Giant plant response rating): 100%; pest or weed control at 250 g/ha ([5]; 250 g ai/ha, preemergence, scale 0 (no effect) to 100 (complete control), read-out: Foxtail, Giant plant response rating): 100%; pest or weed control at 31 g/ha ([5]; Preemergence, 31 g ai/ha, scale 0 to 100, 0 no effect, 100 complete control, read-out: Plant response rating, Foxtail, Giant): 100%; pest or weed control at 62 g/ha ([6]; 62 g ai/ha, preemergence, scale 0 (no effect) to 100 (complete control), read-out: Nutsedge, Yellow plant response rating): 85%; pest or weed control at 125 g/ha ([6]; 125 g ai/ha, preemergence, scale 0 (no effect) to 100 (complete control), read-out: Nutsedge, Yellow plant response rating): 90%; pest or weed control at 250 g/ha ([6]; 250 g ai/ha, preemergence, scale 0 (no effect) to 100 (complete control), read-out: Nutsedge, Yellow plant response rating): 95%; pest or weed control at 31 g/ha ([6]; Preemergence, 31 g ai/ha, scale 0 to 100, 0 no effect, 100 complete control, read-out: Plant response rating, Nutsedge, Yellow): 70%; pest or weed control at 62 g/ha ([7]; 62 g ai/ha, preemergence, scale 0 (no effect) to 100 (complete control), read-out: Pigweed plant response rating): 100%; pest or weed control at 125 g/ha ([7]; 125 g ai/ha, preemergence, scale 0 (no effect) to 100 (complete control), read-out: Pigweed plant response rating): 100%; pest or weed control at 250 g/ha ([7]; 250 g ai/ha, preemergence, scale 0 (no effect) to 100 (complete control), read-out: Pigweed plant response rating): 100%; pest or weed control at 31 g/ha ([7]; Preemergence, 31 g ai/ha, scale 0 to 100, 0 no effect, 100 complete control, read-out: Plant response rating, Pigweed): 100%; pest or weed control at 62 g/ha ([8]; 62 g ai/ha, preemergence, scale 0 (no effect) to 100 (complete control), read-out: Barnyardgrass plant response rating): 100%; pest or weed control at 125 g/ha ([8]; 125 g ai/ha, preemergence, scale 0 (no effect) to 100 (complete control), read-out: Barnyardgrass plant response rating): 100%; pest or weed control at 250 g/ha ([8]; 250 g ai/ha, preemergence, scale 0 (no effect) to 100 (complete control), read-out: Barnyardgrass plant response rating): 100%; pest or weed control at 31 g/ha ([8]; Preemergence, 31 g ai/ha, scale 0 to 100, 0 no effect, 100 complete control, read-out: Plant response rating, Barnyardgrass): 98%; pest or weed control at 125 g/ha ([9]; 125 g ai/ha, postemergence, read-out: Plant response rating (0 to 100), Ryegrass, Italian): 10%; pest or weed control at 250 g/ha ([9]; 250 g ai/ha, postemergence, read-out: Plant response rating (0 to 100), Ryegrass, Italian): 35%; pest or weed control at 31 g/ha ([9]; Postemergence, 31 g ai/ha, scale 0 to 100 (0 no effect, 100 complete control), 13 to 15 days, read-out: Plant response rating, Ryegrass, Italian): 5%; pest or weed control at 62 g/ha ([9]; Postemergence, 62 g ai/ha, scale 0 to 100 (0 no effect, 100 complete control), read-out: Plant response rating, Ryegrass, Italian): 5%; plant injury at 125 g/ha ([10]; 125 g ai/ha, postemergence, read-out: Plant response rating (0 to 100), Wheat): 25%; plant injury at 250 g/ha ([10]; 250 g ai/ha, postemergence, read-out: Plant response rating (0 to 100), Wheat): 30%; plant injury at 31 g/ha ([10]; Postemergence, 31 g ai/ha, scale 0 to 100 (0 no effect, 100 complete control), 13 to 15 days, read-out: Plant response rating, Wheat): 10%; plant injury at 62 g/ha ([10]; Postemergence, 62 g ai/ha, scale 0 to 100 (0 no effect, 100 complete control), read-out: Plant response rating, Wheat): 15%; pest or weed control at 125 g/ha ([11]; 125 g ai/ha, postemergence, read-out: Plant response rating (0 to 100), Galium): 85%; pest or weed control at 250 g/ha ([11]; 250 g ai/ha, postemergence, read-out: Plant response rating (0 to 100), Galium): 95%; pest or weed control at 31 g/ha ([11]; Postemergence, 31 g ai/ha, scale 0 to 100 (0 no effect, 100 complete control), 13 to 15 days, read-out: Plant response rating, Galium): 60%; pest or weed control at 62 g/ha ([11]; Postemergence, 62 g ai/ha, scale 0 to 100 (0 no effect, 100 complete control), read-out: Plant response rating, Galium): 70%; plant injury at 125 g/ha ([12]; 125 g ai/ha, postemergence, read-out: Plant response rating (0 to 100), Corn): 25%; plant injury at 250 g/ha ([12]; 250 g ai/ha, postemergence, read-out: Plant response rating (0 to 100), Corn): 45%; Corn plant response rating (crop injury, 0 = no effect, 100 = complete kill) at 31 g/ha ([12]; Postemergence, 31 g ai/ha, scale 0 to 100 (0 no effect, 100 complete control), 13 to 15 days): 10%; Corn plant response rating (crop injury, 0 = no effect, 100 = complete kill) at 62 g/ha ([12]; Postemergence, 62 g ai/ha, scale 0 to 100 (0 no effect, 100 complete control)): 15%; pest or weed control at 125 g/ha ([13]; 125 g ai/ha, postemergence, read-out: Plant response rating (0 to 100), Nutsedge, Yellow): 15%; pest or weed control at 250 g/ha ([13]; 250 g ai/ha, postemergence, read-out: Plant response rating (0 to 100), Nutsedge, Yellow): 15%; pest or weed control at 31 g/ha ([13]; Postemergence, 31 g ai/ha, scale 0 to 100 (0 no effect, 100 complete control), 13 to 15 days, read-out: Plant response rating, Nutsedge, Yellow): 5%; pest or weed control at 62 g/ha ([13]; Postemergence, 62 g ai/ha, scale 0 to 100 (0 no effect, 100 complete control), read-out: Plant response rating, Nutsedge, Yellow): 5%; pest or weed control at 125 g/ha ([14]; 125 g ai/ha, postemergence, read-out: Plant response rating (0 to 100), Barnyardgrass): 15%; pest or weed control at 250 g/ha ([14]; 250 g ai/ha, postemergence, read-out: Plant response rating (0 to 100), Barnyardgrass): 75%; pest or weed control at 31 g/ha ([14]; Postemergence, 31 g ai/ha, scale 0 to 100 (0 no effect, 100 complete control), 13 to 15 days, read-out: Plant response rating, Barnyardgrass): 5%; pest or weed control at 62 g/ha ([14]; Postemergence, 62 g ai/ha, scale 0 to 100 (0 no effect, 100 complete control), read-out: Plant response rating, Barnyardgrass): 5%; pest or weed control at 125 g/ha ([15]; 125 g ai/ha, postemergence, read-out: Plant response rating (0 to 100), Kochia): 100%; pest or weed control at 250 g/ha ([15]; 250 g ai/ha, postemergence, read-out: Plant response rating (0 to 100), Kochia): 100%; pest or weed control at 31 g/ha ([15]; Postemergence, 31 g ai/ha, scale 0 to 100 (0 no effect, 100 complete control), 13 to 15 days, read-out: Plant response rating, Kochia): 95%; pest or weed control at 62 g/ha ([15]; Postemergence, 62 g ai/ha, scale 0 to 100 (0 no effect, 100 complete control), read-out: Plant response rating, Kochia): 95%

From patent US9695155B2, “Herbicidal substituted pyrimidinyloxy benzene compounds” (E. I. DU PONT DE NEMOURS AND COMPANY, priority 2013, dated 2017)
